Several values for one entry are separate records, joined by “and”; a condition that tells them apart may be missing. Equal values may be shown once.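 Tested at 5 concentrations; 48 h exposure; 96-well plates; endpoints linearly interpolated, else capped at highest concentration. GI50 = concentration required for 50% inhibition of growth. TGI is the concentration that stops growth completely.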
Key:
Test in all cases: growth of human tumour cells (NCI), 48 h
COLO 205 colon = tested on: COLO 205 colon
DU-145 prostate = tested on: DU-145 prostate
HL-60(TB) leukemia = tested on: HL-60(TB) leukemia
HS 578T breast = tested on: HS 578T breast
MCF7 breast = tested on: MCF7 breast
MDA-MB-231 breast = tested on: MDA-MB-231 breast
MDA-MB-435 = tested on: MDA-MB-435
PC-3 prostate = tested on: PC-3 prostate
RXF 393 renal = tested on: RXF 393 renal
SF-268 CNS = tested on: SF-268 CNS
SK-MEL-2 melanoma = tested on: SK-MEL-2 melanoma
SNB-19 CNS = tested on: SNB-19 CNS
SR leukemia = tested on: SR leukemia
DLD-1 colon = tested on: DLD-1 colon
DMS 273 small cell lung = tested on: DMS 273 small cell lung
MDA-N = tested on: MDA-N

Structure (SMILES) | TGI (COLO 205 colon) | TGI (DU-145 prostate) | TGI (HL-60(TB) leukemia) | TGI (HS 578T breast) | TGI (MCF7 breast) | TGI (MDA-MB-231 breast) | TGI (MDA-MB-435) | TGI (PC-3 prostate) | TGI (RXF 393 renal) | TGI (SF-268 CNS) | TGI (SK-MEL-2 melanoma) | TGI (SNB-19 CNS) | TGI (SR leukemia) | TGI (DLD-1 colon) | TGI (DMS 273 small cell lung) | TGI (MDA-N) | GI50 (DU-145 prostate) | GI50 (MCF7 breast) | GI50 (SNB-19 CNS) | GI50 (SR leukemia)
O=C(COc1ccc(Cl)c(Cl)c1)Nc1ccc[n+](Cc2ccc(S(=O)(=O)F)c(Cl)c2)c1 | > 100 µM | > 100 µM | > 100 µM | > 100 µM | > 100 µM | > 100 µM | > 100 µM | > 100 µM | > 100 µM | > 100 µM | > 100 µM | > 100 µM | > 100 µM |  |  |  |  |  |  | 
O=C(CSCC(=O)N/N=C/c1ccc2c(c1)OCO2)N/N=C/c1ccc2c(c1)OCO2 |  | > 100 µM | > 100 µM | > 100 µM | > 100 µM | > 100 µM | > 100 µM | > 100 µM | > 100 µM | > 100 µM | > 100 µM | > 100 µM |  |  |  |  |  |  |  | 
C[C@@H]1C[C@H]2[C@@H]3CCC4=CC(=O)C=C[C@]4(C)[C@@]3(F)[C@@H](O)C[C@]2(C)[C@@]1(O)C(=O)CO | > 100 µM |  | > 100 µM |  |  |  |  |  |  |  | > 100 µM |  | > 100 µM | > 100 µM |  |  |  |  |  | 
C[C@H]1C[C@@H]2[C@H]([C@@H](O)C[C@@]3(C)[C@H]2CC[C@]3(O)C(=O)CO)[C@@]2(C)C=CC(=O)C=C12 | > 100 µM |  | > 100 µM |  |  |  |  |  |  |  | > 100 µM |  | > 100 µM | > 100 µM | > 100 µM |  |  |  |  | 
COc1ccccc1/C=C/c1ccnc2ccccc12 | 33.2 µM | 30.8 µM | 26 µM | 38.5 µM | 17.5 µM | 31.1 µM | 19.9 µM | 27.3 µM |  | 29.4 µM | 30.1 µM | 28.2 µM | 35.7 µM |  |  | 26.1 µM |  |  |  | 
c1ccc2c(CSCc3cccc4ccccc34)cccc2c1 |  | > 100 µM |  | > 100 µM |  | > 100 µM | > 100 µM | > 100 µM | > 100 µM | > 100 µM | > 100 µM | > 100 µM | > 100 µM |  |  | > 100 µM |  |  |  | 
C[n+]1cccc(NC(=O)c2ccc(NC(=O)C34CCC(C(=O)Nc5ccc(C(=O)Nc6ccc[n+](C)c6)cc5)(CC3)CC4)cc2)c1 |  |  | 9.33 µM |  |  |  |  |  | 61.5 µM | > 100 µM |  | > 100 µM | > 100 µM | > 100 µM | 25.9 µM |  |  |  |  | 
COc1cc2c(c(OC)c1OC)-c1ccc(OC)c(=O)cc1C(NC(=O)COc1ccccc1)CC2 (stereo unspecified) | < 0.01 µM | < 0.01 µM |  | > 31.6 µM | > 49.4 µM | 1.22 µM | < 0.01 µM | > 100 µM | > 71.5 µM | 61.6 µM | > 15.8 µM | > 100 µM | 8.93 µM | > 100 µM | > 100 µM | < 0.01 µM |  |  |  | 
CNC(=O)OCc1nc(SC)n(C)c1CO | > 100 µM |  | > 100 µM |  | > 100 µM |  |  |  | > 100 µM | > 100 µM | > 66.8 µM | > 100 µM |  | > 100 µM | > 100 µM |  |  |  |  | 
CC(=O)Nc1ccc2c(c1)/C(=C\c1ccc([N+](C)(C)C)cc1)c1ccccc1-2 | 35.6 µM | > 100 µM | 59.5 µM | 88.3 µM | > 100 µM | > 100 µM | > 100 µM | > 100 µM | > 100 µM | > 100 µM |  | > 100 µM |  |  |  | > 100 µM |  |  |  | 
CN1C=c2c3c(ccc2=C2C=CC4C=C5OCOC5=CC4=C21)OCO3 (stereo unspecified) | 2.78 µM and 3.5 µM | 3.76 µM and 24.3 µM | 0.434 µM and 0.847 µM | > 24.9 µM and 5.78 µM | 2.89 µM and 17.4 µM | 2.54 µM and 4.52 µM | 2.45 µM and 3.61 µM | 2.85 µM and 9.48 µM | 2.57 µM and 4.4 µM | 3.46 µM and 6.76 µM | 3.53 µM and 5.87 µM | 3.07 µM and 25 µM |  |  |  | 2.79 µM and 3.98 µM | 2.2 µM and 11.9 µM | 1.48 µM and 4.4 µM | 1.65 µM and 12.2 µM | 2.48 µM
COc1cc(C(=O)NC2CCc3cc(OC)c(OC)c(OC)c3-c3ccc(OC)c(=O)cc32)cc(OC)c1OC (stereo unspecified) | 0.23 µM |  | 0.262 µM | > 21.1 µM | > 100 µM | > 100 µM | 0.0961 µM | > 100 µM | 24 µM | 42.4 µM | > 24.1 µM | > 100 µM | > 100 µM | > 100 µM | > 100 µM | 0.0961 µM |  |  |  | 
CC(=O)Oc1ccccc1 |  |  | > 100 µM |  |  |  |  |  | > 100 µM | > 100 µM | > 100 µM | > 100 µM |  | > 100 µM | > 100 µM |  |  |  |  | 

Source: PubChem BioAssay (NCI)
